We go through three molecules from paper PMC6469291, “2-Nitroimidazole-Furanoside Derivatives for Hypoxia Imaging—Investigation of Nucleoside Transporter Interaction, ^18F-Labeling and Preclinical PET Imaging” (Pharmaceuticals, 2019).

The data set relates to CT26 colon carcinoma. The data set can be described thus: PET hypoxia imaging of CT26 colon carcinoma bearing mice. Particulars: for tumor uptake: hypoxic CT26 tumor tissue; for tumor uptake / muscle uptake: PET; for tumor-to-muscle ratio (TMR): i.v., CT26 tumor vs. shoulder muscle, mean ± SD; for muscle uptake: normoxic muscle tissue. The class given is in vivo, BALB/c mice. The method, then: The above-described CT26 mouse colon carcinoma cells were subcutaneously inoculated in the right shoulder of female BALB/c mice (1 × 10^6 cells in phosphate-buffered saline, PBS). Subsequently, the carcinomas were allowed to grow for a period of 13 days, reaching approximately 0.3 cm3. […] All animal experiments were conducted according to guidelines for the use and care of laboratory research animals under the German Animal Protection Law, and approved by local authorities (Regierungspräsidium Tübingen). […] All experiments were done using medical air as carrier gas for isoflurane anesthesia (1.5% isoflurane during PET scans, flow rate 0.4 L/min), including tracer injections, with a specialized vaporizer ([…], Louisville, KY, USA). Subsequent to the tracer injections, the animals were allowed to freely move in their home cages for an uptake period of 55 min, thus, breathing room air. […] PET scans were performed with a Siemens Inveon dedicated PET (DPET, Siemens Healthcare, Knoxville, TN, USA). PET scans were then reconstructed with a two-dimensional ordered subset expectation maximization algorithm (OSEM2D with 16 subsets and 4 iterations). Image zoom was set to 1 and matrix size to 128 × 128 yielding a final PET image spatial resolution of 0.79 × 0.79 × 0.80 mm3. PET data were manually corrected for radioactive decay of ^18F. PET image analysis was performed using the PMOD 3.2_base 64 image viewing tool (PMOD Technologies, Zürich, Switzerland). […] Finally, PET data were expressed as percent injected dose per cubic-centimeter (%ID/cc) or tumor-to-muscle ratio (TMR).

With `O=[N+]([O-])c1nccn1CC(O)C[18F]` (centres unmarked) [[^18F]FMISO, reference compound], for the setting “1 h p.i.”, the tumor uptake is on record as 2.49 ± 0.88 %ID/cc, the “tumor-to-muscle ratio (TMR)” value was determined as 1.37 ± 0.11 and the muscle uptake came out at 1.81 ± 0.58 %ID/cc. Under “2 h p.i. relative to 1 h p.i.”, this molecule gave a muscle clearance of 37.2 ± 4.3% and a tumor clearance of 11.8 ± 6.5%. For the same molecule, for the setting “3 h p.i.”, the “clearance ratio for tumor relative to muscle tissue” value came out at 0.45 ± 0.17. Under “3 h p.i. relative to 1 h p.i.”, this molecule registered a muscle clearance of 58.6 ± 3.3% and a tumor clearance of 26.9 ± 10.1%.
For `O=[N+]([O-])c1nccn1[C@@H]1C[C@H](O)[C@@H](C[18F])O1` [α-[^18F]FAZDR, 1′-α-[2′,5′-dideoxy-5′-[^18F]fluoro-D-ribofuranosyl]-2-nitroimidazole], under “1 h p.i.”, the tumor uptake is recorded as 1.90 ± 0.48 %ID/cc, the “tumor-to-muscle ratio (TMR)” value was determined as 1.93 ± 0.39 and the muscle uptake amounted to 1.01 ± 0.32 %ID/cc. Where the note is “2 h p.i. relative to 1 h p.i.”, this molecule returned a muscle clearance of 53.3 ± 8.3% and a tumor clearance of 34.2 ± 7.5%. Besides, under “3 h p.i.”, the “clearance ratio for tumor relative to muscle tissue” value was determined as 0.79 ± 0.12, the tumor uptake is given as 0.88 ± 0.42 %ID/cc and the muscle uptake was found to be 0.31 ± 0.15 %ID/cc. For the setting “3 h p.i. relative to 1 h p.i.”, this molecule displayed a muscle clearance of 70.3 ± 5.5% and a tumor clearance of 55.3 ± 8.3%.
Turning to `O=[N+]([O-])c1nccn1[C@H]1C[C@H](O)[C@@H](C[18F])O1` [β-[^18F]FAZDR, [^18F]fluoro-azomycin-β-deoxyriboside], where the note is “1 h p.i.”, the tumor uptake was determined as 0.40 ± 0.07 %ID/cc, the “tumor-to-muscle ratio (TMR)” value was determined as 2.52 ± 0.94 and the muscle uptake is on record as 0.17 ± 0.03 %ID/cc. In addition, where the note is “2 h p.i. relative to 1 h p.i.”, the muscle clearance is given as 58.4 ± 8.2% and the tumor clearance came to 56.6 ± 6.8%. Besides, under “2 h p.i.”, the tumor uptake is 0.18 ± 0.06 %ID/cc, the “tumor-to-muscle ratio (TMR)” value is 2.65 ± 0.87 and the muscle uptake was found to be 0.07 ± 0.01 %ID/cc. Where the note is “3 h p.i.”, the “clearance ratio for tumor relative to muscle tissue” value came to 0.95 ± 0.02, the tumor uptake turned out to be 0.12 ± 0.05 %ID/cc, the “tumor-to-muscle ratio (TMR)” value stood at 2.91 ± 1.01 and the muscle uptake came to 0.04 ± 0.01 %ID/cc. Under “3 h p.i. relative to 1 h p.i.”, this molecule came in with a muscle clearance of 75.3 ± 6.4% and a tumor clearance of 71.5 ± 7.0%.
